Test results published in paper PMC7161086 (Peptides, 2019).

How the values were obtained:
[1] = system: Staphylococcus aureus ATCC 43300 MRSA; test: MIC, additional antimicrobial activities; format: cell-based; settings: for Minimal inhibitory concentration (MIC) Sa: Staphylococcus aureus ATCC 43300 MRSA
[2] = system: Escherichia coli ATCC 25922; test: MIC, additional antimicrobial activities; format: cell-based
[3] = system: Psedomonas aeruginosa ATCC 27853; test: MIC, additional antimicrobial activities; format: cell-based
[4] = system: Acinetobacter baumannii ATCC 19606; test: MIC, additional antimicrobial activities; format: cell-based
[5] = system: Candida albicans ATCC 90028; test: MIC, additional antimicrobial activities; format: cell-based
[6] = system: Cryptococcus neoformans var. grubii H99 ATCC 20882; test: MIC, additional antimicrobial activities; format: cell-based
[7] = system: HEK-293 human embryonic kidney cells (ATCC CRL-1573); test: Cytotoxicity, resazurin test; format: cell-based; settings: performed by CO-ADD
[8] = system: Klebsiella pneumoniae ATCC 700603
[9] = system: Staphylococcus aureus JE2 MRSA; test: MIC assay, broth microdilution; format: cell-based
[10] = system: Escherichia coli K12; test: MIC assay, broth microdilution; format: cell-based; settings: 37 °C, 24 h, MHB
[11] = system: human red blood cells; format: cell-based

| Substance | Minimal inhibitory concentration (MIC) Sa [1] | Minimal inhibitory concentration (MIC) Ec [2] | Minimal inhibitory concentration (MIC) Pa [3] | Minimal inhibitory concentration (MIC) Ab [4] | Minimal inhibitory concentration (MIC) Ca [5] | Minimal inhibitory concentration (MIC) Cn [6] | IC50 HEK-293 [7] | Minimal inhibitory concentration (MIC) Kp [8] | Minimal inhibitory concentration (MIC) Sa ([9]; Staphylococcus aureus JE2 MRSA, 37 °C, 24 h, MHB) | fold increase in activity (decrease of MIC) against S. aureus ([9]; relative to Cit 1.1) | Minimal inhibitory concentration (MIC) Ec [10] | fold increase in activity (decrease of MIC) against MRSA strains ([1]; relative to Cit 1.1, MRSA strains JE2 and ATCC 43300) | HC50 Human red blood cells [11] |
| --- | --- | --- | --- | --- | --- | --- | --- | --- | --- | --- | --- | --- | --- |
| GLFDVI(Orn)(Orn)VASVIGGL [AMP-006] | 32 mg/L | > 32 mg/L | > 32 mg/L | > 32 mg/L | > 32 mg/L | 32 mg/L | > 32 mg/L | > 32 mg/L |  |  |  |  |  |
| GLFDVIRRVASVIGGL [AMP-012] | 16 mg/L | 32 mg/L | > 32 mg/L | 32 mg/L | 16 mg/L | 16 mg/L |  | > 32 mg/L | 16 mg/L | 2 fold | 32 mg/L | 2 fold | 18.2 µg/mL |
